Source: patent US10696687B2, “Pyrazolo fused heterocyclic compounds as ERK inhibitors” (CHANGZHOU JIEKAI PHARMATECH CO., LTD., priority 2015, dated 2020)
pIC50: −log10 of the molar value.

The molecules below were run on Colon cancer cells (Colo205 cell line) (assay: Colo205 cell proliferation assay (MTT assay, WST-8 readout)). Conditions: Homo sapiens, COLO 205, 72 hours incubation, absorbance at 450 nm, read-out: Colo 205 cell growth inhibition IC50.
Type: cell-based
Experimental: Compounds disclosed herein were tested for the inhibition of ERK2 by a Colo205 cell proliferation assay commonly known as MTT assay. In this assay, a complete media was prepared by adding 10% fetal bovine serum to RPMI-1640 medium (Life technology). Colon cancer cells (Colo205 cell line) were added to each of 88 wells of a 96 well plate at a seeding density of 5,000 cells/well/90 μL. The cells were allowed to attach to the plate by incubating at 37° C. for 24 hours. The compound was dissolved in DMSO (SIGMA). A solution of test compound was prepared in complete media by serial dilution to obtain the following concentrations: 500 μM, 150 μM, 50 μM, 15 μM, 5 μM, 1.5 μM, 0.5 μM, 0.15 μM and 0.05 μM. The test compound solution (10 μL) was added to each of 80 cell-containing wells. The final concentrations of the compound were following: 50 μM, 15 μM, 5 μM, 1.5 μM, 0.5 μM, 0.15 μM, 0.05 μM, 0.015 μM and 0.005 μM. The final concentration of DMSO is 0.5%. To the 8 remaining cell-containing wells, only complete media (containing 0.5% DMSO) was added to form a control group in order to measure maximal proliferation. To the remaining 8 empty wells, complete media was added to for a vehicle control group in order to measure background. The plates were incubated at 37° C. for 72 hours. 10 μL WST-8 solution (DOJINDO, Cell Counting KIT-8) was added to each well. The plates were further incubated at 37° C. for 2 hours, and then read for the absorbance using a microplate reader at 450 nm.
Work on `Cc1cc(-c2n[nH]c3ncc(C(=O)N[C@@H]4CN(C)C[C@H]4c4ccccc4C(F)(F)F)cc23)ccn1` (racemic) [Compound 3, trans-N-(1-methyl-4-(2-(trifluoromethyl)phenyl)pyrrolidin-3-yl)-3-(2-methylpyridin-4-yl)-1H-pyrazolo[3,4-b]pyridine-5-carboxamide] yielded a pIC50 of 5.00 to 7.28. `CN1C[C@H](NC(=O)c2cnc3[nH]nc(N4CCOCC4)c3c2)[C@@H](c2ccccc2C(F)(F)F)C1` (relative stereo) [Compound 9, trans-N-(1-methyl-4-(2-(trifluoromethyl)phenyl)pyrrolidin-3-yl)-3-morpholino-1H-pyrazolo[3,4-b]pyridine-5-carboxamide] gave a pIC50 of 5.00 to 7.28. Work on `Cc1cc(-c2n[nH]c3ncc(C(=O)N[C@H]4CN(C)C[C@@H]4c4cccc(Cl)c4)cc23)ccn1` (relative stereo) [Compound 10, trans-N-(4-(3-chlorophenyl)-1-methylpyrrolidin-3-yl)-3-(2-methylpyridin-4-yl)-1H-pyrazolo[3,4-b]pyridine-5-carboxamide] yielded a pIC50 of 5.00 to 7.28. With `COc1cc(-c2n[nH]c3ncc(C(=O)N[C@H]4CN(C)C[C@@H]4c4ccccc4C(F)(F)F)cc23)ccn1` (relative stereo) [Compound 13, trans-3-(2-methoxypyridin-4-yl)-N-(1-methyl-4-(2-(trifluoromethyl)phenyl)pyrrolidin-3-yl)-1H-pyrazolo[3,4-b]pyridine-5-carboxamide] the pIC50 was 5.00 to 7.28. In the case of `Cc1cc(-c2n[nH]c3ncc(C(=O)N[C@H]4CN(C)C[C@@H]4c4ccccc4F)cc23)ccn1` (relative stereo) [Compound 16, trans-N-(-4-(2-fluorophenyl)-1-methylpyrrolidin-3-yl)-3-(2-methylpyridin-4-yl)-1H-pyrazolo[3,4-b]pyridine-5-carboxamide], the pIC50 was 5.00 to 7.28. Molecule `COc1ncc(-c2n[nH]c3ncc(C(=O)N[C@H]4CN(C)C[C@@H]4c4ccccc4C(F)(F)F)cc23)cn1` (relative stereo) [Compound 17, trans-3-(2-methoxypyrimidin-5-yl)-N-(-1-methyl-4-(2-(trifluoromethyl)phenyl)pyrrolidin-3-yl)-1H-pyrazolo[3,4-b]pyridine-5-carboxamide] has a pIC50 of 5.00 to 7.28. `Cc1cc(-c2n[nH]c3ccc(C(=O)N[C@H]4CN(C)C[C@@H]4c4ccccc4F)cc23)ccn1` (relative stereo) [Compound 23, trans-N-(-4-(2-fluorophenyl)-1-methylpyrrolidin-3-yl)-3-(2-methylpyridin-4-yl)-1H-indazole-5-carboxamide] showed a pIC50 of 5.00 to 7.28. For `Cc1cc(-c2n[nH]c3ncc(C(=O)N[C@H]4CN(C)C[C@@H]4c4ccc(F)cc4)cc23)ccn1` (relative stereo) [Compound 24, trans-N-(-4-(4-fluorophenyl)-1-methylpyrrolidin-3-yl)-3-(2-methylpyridin-4-yl)-1H-pyrazolo[3,4-b]pyridine-5-carboxamide], the pIC50 was 5.00 to 7.28. Molecule `Cc1cc(-c2n[nH]c3ncc(C(=O)N[C@H]4CN(C)C[C@@H]4c4ccc(F)cc4F)cc23)ccn1` (relative stereo) [Compound 25, trans-N-(-4-(2,4-difluorophenyl)-1-methylpyrrolidin-3-yl)-3-(2-methylpyridin-4-yl)-1H-pyrazolo[3,4-b]pyridine-5-carboxamide] has a pIC50 of 5.00 to 7.28. Molecule `CCN1C[C@H](NC(=O)c2cnc3[nH]nc(-c4ccnc(C)c4)c3c2)[C@@H](c2ccccc2C(F)(F)F)C1` (relative stereo) [Compound 26, trans-N-(-1-ethyl-4-(2-(trifluoromethyl)phenyl)pyrrolidin-3-yl)-3-(2-methylpyridin-4-yl)-1H-pyrazolo[3,4-b]pyridine-5-carboxamide] has a pIC50 of 5.00 to 7.28. Molecule `Cc1cc(-c2n[nH]c3ncc(C(=O)N[C@H]4CN(C)C[C@@H]4c4ccc(F)cc4Cl)cc23)ccn1` (relative stereo) [Compound 28, trans-N-(-4-(2-chloro-4-fluorophenyl)-1-methylpyrrolidin-3-yl)-3-(2-methylpyridin-4-yl)-1H-pyrazolo[3,4-b]pyridine-5-carboxamide] has a pIC50 of 5.00 to 7.28. For `CCCN1C[C@H](NC(=O)c2cnc3[nH]nc(-c4ccnc(C)c4)c3c2)[C@@H](c2ccccc2C(F)(F)F)C1` (relative stereo) [Compound 29, trans-3-(2-methylpyridin-4-yl)-N-(-1-propyl-4-(2-(trifluoromethyl)phenyl)pyrrolidin-3-yl)-1H-pyrazolo[3,4-b]pyridine-5-carboxamide], the pIC50 was 5.00 to 7.28. Work on `Cc1cc(-c2n[nH]c3ccc(C(=O)N[C@@H]4CN(C)C[C@H]4c4ccccc4Cl)cc23)ccn1` (relative stereo) [Compound 31, trans-N-(-4-(2-chlorophenyl)-1-methylpyrrolidin-3-yl)-3-(2-methylpyridin-4-yl)-1H-indazole-5-carboxamide] yielded a pIC50 of 5.00 to 7.28. Work on `Cc1cc(-c2n[nH]c3ncc(C(=O)N[C@@H]4C[C@H]4c4ccccc4)cc23)ccn1` (relative stereo) [Compound 36, trans-3-(2-methylpyridin-4-yl)-N-(2-phenylcyclopropyl)-1H-pyrazolo[3,4-b]pyridine-5-carboxamide] yielded a pIC50 of 5.00 to 7.28. `Cc1cc(-c2n[nH]c3ncc(C(=O)N[C@@H]4CN(C)C[C@H]4c4ccccc4)cc23)ccn1` (relative stereo) [Compound 38, Trans-N-(1-methyl-4-phenylpyrrolidin-3-yl)-3-(2-methylpyridin-4-yl)-1H-pyrazolo[3,4-b]pyridine-5-carboxamide] gave a pIC50 of 5.00 to 7.28. Molecule `Cc1cc(-c2n[nH]c3ncc(C(=O)N[C@@H]4C[C@H]4c4ccccc4Cl)cc23)ccn1` (relative stereo) [Compound 40, trans-N-(2-(2-chlorophenyl)cyclo-propyl)-3-(2-methylpyridin-4-yl)-1H-pyrazolo[3,4-b]pyridine-5-carboxamide] has a pIC50 of 5.00 to 7.28. `Cc1cc(-c2n[nH]c3ncc(C(=O)N[C@@H]4CN(C)C[C@H]4c4ccccc4C(F)(F)F)cc23)ccn1` (single isomer, unassigned) [Compound 14] showed a pIC50 of 5.00 to 7.28. `Cc1cc(-c2n[nH]c3ncc(C(=O)N[C@H]4CN(C)C[C@@H]4c4ccccc4C(F)(F)F)cc23)ccn1` (single isomer, unassigned) [Compound 15] gave a pIC50 of 5.00 to 7.28. `CN1C[C@H](NC(=O)c2cnc3[nH]nc(-c4ccnc(C(F)(F)F)c4)c3c2)[C@@H](c2ccccc2C(F)(F)F)C1` (stereo in doubt) [Compound 18, N-(-1-methyl-4-(2-(trifluoromethyl)phenyl)pyrrolidin-3-yl)-3-(2-(trifluoromethyl)pyridin-4-yl)-1H-pyrazolo[3,4-b]pyridine-5-carboxamide] showed a pIC50 of 5.00 to 7.28. `Cc1cc(-c2n[nH]c3ncc(C(=O)N[C@H]4CNC[C@@H]4c4ccccc4C(F)(F)F)cc23)ccn1` (stereo in doubt) [Compound 19, 3-(2-methylpyridin-4-yl)-N-(-4-(2-(trifluoromethyl)phenyl)pyrrolidin-3-yl)-1H-pyrazolo[3,4-b]pyridine-5-carboxamide] was tested, and the pIC50 was 5.00 to 7.28. `Cc1cc(-c2n[nH]c3ncc(C(=O)N[C@H]4CN(S(C)(=O)=O)C[C@@H]4c4ccccc4C(F)(F)F)cc23)ccn1` (stereo in doubt) [Compound 20, 3-(2-methylpyridin-4-yl)-N-(-1-(methylsulfonyl)-4-(2-(trifluoromethyl)phenyl)pyrrolidin-3-yl)-1H-pyrazolo[3,4-b]pyridine-5-carboxamide] gave a pIC50 of 5.00 to 7.28. Work on `Cc1cc(-c2n[nH]c3ncc(C(=O)N[C@H](CO)c4cccc(Cl)c4)cc23)ccn1` [Compound 1, (S)-N-(1-(3-chlorophenyl)-2-hydroxyethyl)-3-(2-methylpyridin-4-yl)-1H-pyrazolo[3,4-b]pyridine-5-carboxamide] yielded a pIC50 of 5.00 to 7.28. Work on `Cc1cc(-c2n[nH]c3nc(NC(=O)N[C@H](C)c4ccccc4)ccc23)ccn1` [Compound 2, (R)-1-(3-(2-methylpyridin-4-yl)-1H-pyrazolo[3,4-b]pyridin-6-yl)-3-(1-phenylethyl)urea] yielded a pIC50 of 5.00 to 7.28. `Cc1cc(-c2n[nH]c3ncc(NC(=O)N[C@@H](C)c4ccccc4)cc23)ccn1` [Compound 4, (S)-1-(3-(2-methylpyridin-4-yl)-1H-pyrazolo[3,4-b]pyridin-5-yl)-3-(1-phenylethyl)urea] was tested, and the pIC50 was 5.00 to 7.28. Molecule `Cc1cc(-c2n[nH]c3ncc(C(=O)N[C@@H]4CN(C(C)C)C[C@H]4c4ccccc4C(F)(F)F)cc23)ccn1` [Compound 21, N-((3S,4R)-1-isopropyl-4-(2-(trifluoromethyl)phenyl)pyrrolidin-3-yl)-3-(2-methylpyridin-4-yl)-1H-pyrazolo[3,4-b]pyridine-5-carboxamide] has a pIC50 of 5.00 to 7.28. `COCCN1C[C@@H](NC(=O)c2cnc3[nH]nc(-c4ccnc(C)c4)c3c2)[C@H](c2ccccc2C(F)(F)F)C1` [Compound 22, N-((3S,4R)-1-(2-methoxyethyl)-4-(2-(trifluoromethyl)phenyl)pyrrolidin-3-yl)-3-(2-methylpyridin-4-yl)-1H-pyrazolo[3,4-b]pyridine-5-carboxamide] showed a pIC50 of 5.00 to 7.28. With `Cc1cc(-c2n[nH]c3ncc(C(=O)N[C@H]4CCC[C@@H]4c4ccccc4)cc23)ccn1` [Compound 32] the pIC50 was 5.00 to 7.28.
